Test results reported in US12564591B2, “HCK as a therapeutic target in MYD88 mutated diseases” (Dana-Farber Cancer Institute, Inc., priority 2019, dated 2026).
Entries after “also recorded” stand apart in the source; their conditions may differ. Like-named read-outs stand apart in the source and are kept apart here.

Key:
[1] = Liver microsome stability; format: in vitro ADME; conditions: dog, liver microsomes; dogs; read-out: half-life t1/2 with purified microsomes
[2] = Survivability of treated subjects; format: in vivo; conditions: compared to subjects treated with other BTK inhibitors (e.g., ibrutinib, A419259)
[3] = test system: pBTK, pAKT, pERK1/2, and pSYK; test: Western blot of downstream signaling in HCK^WT or HCK^T333M transduced BCWM.1 cells; format: cell-based
Description: (§1) An HCK gatekeeper mutant HCK^T333M was generated and rescue experiments performed in MYD88 mutated BCWM.1 cells. Expression of HCK^T333M produced a more than 20-fold increase in resistance to Compound (I) versus vector or wild-type HCK transduced BCWM.1 cells (FIG. 5A).

[4] = test system: vector, HCK^WT or HCK^T333M transduced BCWM.1 cells; test: HCK^T333M gatekeeper mutant rescue, dose-response 72 hours; format: cell-based; conditions: versus vector or wild-type HCK transduced BCWM.1 cells
Description: as §1

[5] = test system: p-HCK and p-BTK in WM patients LPCs; test: p-HCK and p-BTK by PhosFlow in MYD88 mutated WM patient bone marrow tumor cells; format: cell-based, human
Experimental: (§2) The anti-tumor activity of Compound (I) was also assessed using primary MYD88 mutated bone marrow derived CD19-positive lymphoplasmacytic cells (LPCs) from WM patients, and compared effects against healthy donor CD19+ B-cells.

[6] = Liver microsome stability; format: in vitro ADME; conditions: rat, liver microsomes
[7] = test system: MYD88 mutated WM and ABC DLBCL cell lines versus MYD88 wild-type GCB DLBCL, Burkitt's Lymphoma, and multiple myeloma cell lines; test: CellTiter-Glo cell viability, MYD88 mutated versus wild-type cell lines; format: cell-based
CYP2C8 = CYP2C8 (Homo sapiens, UniProt P10632); test: In vitro CYP inhibition; format: in vitro ADME; parameters: dose or concentration left out as unconfirmed; conditions: at 10 PM, read-out: CYP inhibition (2C8)
Description: (§3) […]. […] […].

CYP1A = test: In vitro CYP inhibition; format: in vitro ADME; parameters: dose or concentration left out as unconfirmed; conditions: at 10 PM; read-out: CYP inhibition (1A)
Description: as §3

CYP2C9 = CYP2C9 (Homo sapiens, UniProt P11712); test: In vitro CYP inhibition; format: in vitro ADME; parameters: dose or concentration left out as unconfirmed; conditions: at 10 PM, read-out: CYP inhibition (2C9)
Description: as §3

CYP2D6 = CYP2D6 (Homo sapiens, UniProt P10635); test: In vitro CYP inhibition; format: in vitro ADME; parameters: dose or concentration left out as unconfirmed; conditions: at 10 PM, read-out: CYP inhibition (2D6)
Description: as §3

CYP2B6 = CYP2B6 (Homo sapiens, UniProt P20813); test: In vitro CYP inhibition; format: in vitro ADME; parameters: dose or concentration left out as unconfirmed; conditions: at 10 PM, read-out: CYP inhibition (2B6)
Description: as §3

CYP2C19 = CYP2C19 (Homo sapiens, UniProt P33261); test: In vitro CYP inhibition; format: in vitro ADME; parameters: dose or concentration left out as unconfirmed; conditions: at 10 PM, read-out: CYP inhibition (2C19)
Description: as §3

[8] = test system: healthy donor CD19+ B-cells; test: Apoptosis of healthy donor B-cells; format: cell-based, human
Experimental: as §2

panel of 464 kinases = test: KINOMEscan kinome selectivity profiling (DiscoverX); format: binding; conditions: for S(1) score / S(10) score: 1.0 μM, panel of over 460 kinases
Experimental: The compounds were profiled at a concentration of 1.0 μM against a panel of over 460 kinases by DiscoverX.

BTK [9] = molecular target: T1, BTK (Homo sapiens, UniProt Q06187); test: ATP-competitive pulldown assay (desthiobiotin-ATP probe, western blot) in live BCWM.1 and TMD8 cells; format: cell-based; conditions: live cell pre-treatment
[10] = test system: vector, HCK^WT or HCK^T333M transduced TMD8 ABC DLBCL cells; test: HCK^T333M gatekeeper mutant rescue, dose-response 72 hours; format: cell-based
Experimental: Dose-responses of vector only or HCK^WT or HCK^T333M transduced […] cells following the treatment Compound (I) for 72 hours (FIG. 7A).

LYN [11] = molecular target: T2, LYN (Homo sapiens, UniProt P07948); test: ATP-competitive pulldown assay (desthiobiotin-ATP probe, western blot) in live BCWM.1 and TMD8 cells; format: cell-based; parameters: endogenous in cells; host or cells: BCWM.1 and TMD8 cells
[12] = test system: HCK activation (pHCK^Y411); test: pHCK by PhosFlow in HCK^WT or HCK^T333M transduced BCWM.1 cells; format: cell-based; conditions: HCK^T333M but not HCK^WT expressing BCWM.1 cells
Description: as §1

[13] = Liver microsome stability; format: in vitro ADME; conditions: human, liver microsomes
[14] = test system: vector, HCK^WT or HCK^T333M transduced MWCL-1 WM cells; test: HCK^T333M gatekeeper mutant rescue, dose-response 72 hours; format: cell-based
Experimental: Dose-responses of vector only or HCK^WT or HCK^T333M transduced MWCL-1 cells following the treatment Compound (I) for 72 hours (FIG. 6A).

Plasma protein binding = format: in vitro ADME
Description: as §3

[15] = Liver microsome stability; format: in vitro ADME; conditions: mouse, liver microsomes
[16] = Murine pharmacokinetics (intravenous and oral); format: in vivo; conditions: mouse, serum; for bioavailability: read-out: bioavailability (% F)
hERG = hERG (Homo sapiens, UniProt Q12809); test: hERG testing (patch clamp) for cardiotoxicity; format: cell-based; conditions: at 16 μM
Description: as §3

[17] = Tolerability study, daily oral dosing; format: in vivo; conditions: up to 75 mg/kg daily oral dosing, NOD-SCID mice dosed for >6 weeks, no adverse events observed
Description: as §3

[18] = test system: BTK and ERK 1/2 phosphorylation; conditions: vector only, and BTK^WT transduced BCWM.1 or TMD8 cells, 1.0 hour
HCK [19] = molecular target: T3, HCK (Homo sapiens, UniProt P08631); test: ATP-competitive pulldown assay (desthiobiotin-ATP probe, western blot) in live BCWM.1 and TMD8 cells; format: cell-based; parameters: purchased Life Technologies (SelectScreen); conditions: live cell pre-treatment
LYN [20] = molecular target: T2, LYN; test: Enzymatic assay (SelectScreen, Life Technologies); format: biochemical
[21] = test system: kinases in TMD8 ABC DLBCL cells; test: KiNativ live-cell target engagement profiling (desthiobiotin-ATP probe); format: cell-based
[22] = test system: Salmonella typhimurium tester strains (TA98, TA100, TA1535 and TA1537); test: Ames genotoxicity testing; conditions: up to 50 μM with and without metabolic activation by rat liver S9 fraction
[23] = test system: HCK phosphorylation at Thr^209; conditions: MYD88 mutated WM and ABC DLBCL cells
[24] = test system: primary MYD88 mutated bone marrow derived CD19-positive lymphoplasmacytic cells (LPCs) from WM patients; test: Apoptosis of primary WM patient lymphoplasmacytic cells; format: cell-based, human
Experimental: as §2

BTK [25] = molecular target: T1, BTK; test: Enzymatic / biochemical kinase assay (SelectScreen, Life Technologies); parameters: purchased Life Technologies (SelectScreen)
HCK [26] = molecular target: T3, HCK; test: as above
[27] = Pharmacokinetics of A419259 under oral administration
[28] = HCK^T333M expressing BCWM.1 cells
[29] = read-out: T1/2 in liver microsomes

T3 sequence (P08631 whole entry): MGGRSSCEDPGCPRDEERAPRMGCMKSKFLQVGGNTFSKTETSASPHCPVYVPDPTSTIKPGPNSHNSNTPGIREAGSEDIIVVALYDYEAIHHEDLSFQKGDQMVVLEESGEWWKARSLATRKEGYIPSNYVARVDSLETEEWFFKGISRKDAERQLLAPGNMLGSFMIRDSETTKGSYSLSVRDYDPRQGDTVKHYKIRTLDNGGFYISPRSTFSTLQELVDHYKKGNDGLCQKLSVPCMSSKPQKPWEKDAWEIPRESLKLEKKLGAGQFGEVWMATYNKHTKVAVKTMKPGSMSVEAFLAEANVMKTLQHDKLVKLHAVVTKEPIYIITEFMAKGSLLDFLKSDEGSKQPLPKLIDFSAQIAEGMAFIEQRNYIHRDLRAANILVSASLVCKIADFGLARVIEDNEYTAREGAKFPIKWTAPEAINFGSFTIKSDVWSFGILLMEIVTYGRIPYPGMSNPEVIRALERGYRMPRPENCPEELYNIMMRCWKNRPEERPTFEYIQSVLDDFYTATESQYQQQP
T1 sequence (Q06187 whole entry): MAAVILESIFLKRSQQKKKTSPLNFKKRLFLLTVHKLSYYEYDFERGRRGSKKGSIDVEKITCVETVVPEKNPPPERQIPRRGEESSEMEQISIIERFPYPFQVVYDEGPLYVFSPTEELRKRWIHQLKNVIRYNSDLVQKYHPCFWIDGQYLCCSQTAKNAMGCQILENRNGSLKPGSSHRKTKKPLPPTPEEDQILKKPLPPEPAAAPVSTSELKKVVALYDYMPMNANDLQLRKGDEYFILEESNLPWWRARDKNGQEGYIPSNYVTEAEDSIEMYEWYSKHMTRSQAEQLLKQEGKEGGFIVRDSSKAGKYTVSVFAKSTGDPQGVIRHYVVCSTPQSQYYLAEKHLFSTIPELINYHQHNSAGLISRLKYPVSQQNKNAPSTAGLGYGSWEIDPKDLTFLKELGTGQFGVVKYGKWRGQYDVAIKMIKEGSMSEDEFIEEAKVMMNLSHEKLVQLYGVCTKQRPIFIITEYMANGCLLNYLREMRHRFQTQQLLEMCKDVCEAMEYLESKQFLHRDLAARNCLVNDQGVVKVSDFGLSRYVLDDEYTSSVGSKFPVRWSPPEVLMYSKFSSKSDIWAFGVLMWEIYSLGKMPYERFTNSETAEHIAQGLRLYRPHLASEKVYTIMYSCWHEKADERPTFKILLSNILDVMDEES
T2 sequence (P07948 whole entry): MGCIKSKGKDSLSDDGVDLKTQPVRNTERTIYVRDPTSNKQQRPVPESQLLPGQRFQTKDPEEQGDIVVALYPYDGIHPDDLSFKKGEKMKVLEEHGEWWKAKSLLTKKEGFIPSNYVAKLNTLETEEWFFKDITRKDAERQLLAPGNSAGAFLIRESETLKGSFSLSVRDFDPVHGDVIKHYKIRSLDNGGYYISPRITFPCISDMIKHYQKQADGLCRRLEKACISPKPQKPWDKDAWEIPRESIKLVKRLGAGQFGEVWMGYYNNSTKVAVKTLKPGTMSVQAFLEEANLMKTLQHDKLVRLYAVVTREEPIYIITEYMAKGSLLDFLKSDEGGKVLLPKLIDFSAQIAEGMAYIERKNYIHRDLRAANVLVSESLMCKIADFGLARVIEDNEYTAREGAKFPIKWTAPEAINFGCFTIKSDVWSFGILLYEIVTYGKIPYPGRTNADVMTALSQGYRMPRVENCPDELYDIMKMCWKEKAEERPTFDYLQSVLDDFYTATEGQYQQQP
CYP2D6, sequence (P10635 whole entry): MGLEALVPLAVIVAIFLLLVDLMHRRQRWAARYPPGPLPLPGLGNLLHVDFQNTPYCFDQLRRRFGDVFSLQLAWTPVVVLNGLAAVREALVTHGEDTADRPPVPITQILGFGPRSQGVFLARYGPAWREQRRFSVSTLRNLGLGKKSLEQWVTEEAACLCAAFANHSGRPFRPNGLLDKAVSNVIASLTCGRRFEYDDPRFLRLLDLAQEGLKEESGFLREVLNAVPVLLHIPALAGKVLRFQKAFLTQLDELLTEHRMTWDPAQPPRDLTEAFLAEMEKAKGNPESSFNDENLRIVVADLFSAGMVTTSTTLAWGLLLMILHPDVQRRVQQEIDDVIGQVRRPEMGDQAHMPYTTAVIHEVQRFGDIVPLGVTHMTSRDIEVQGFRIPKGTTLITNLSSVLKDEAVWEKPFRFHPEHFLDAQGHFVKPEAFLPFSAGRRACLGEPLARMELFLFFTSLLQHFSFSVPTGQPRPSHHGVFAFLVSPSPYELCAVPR
CYP2C19, sequence (P33261 whole entry): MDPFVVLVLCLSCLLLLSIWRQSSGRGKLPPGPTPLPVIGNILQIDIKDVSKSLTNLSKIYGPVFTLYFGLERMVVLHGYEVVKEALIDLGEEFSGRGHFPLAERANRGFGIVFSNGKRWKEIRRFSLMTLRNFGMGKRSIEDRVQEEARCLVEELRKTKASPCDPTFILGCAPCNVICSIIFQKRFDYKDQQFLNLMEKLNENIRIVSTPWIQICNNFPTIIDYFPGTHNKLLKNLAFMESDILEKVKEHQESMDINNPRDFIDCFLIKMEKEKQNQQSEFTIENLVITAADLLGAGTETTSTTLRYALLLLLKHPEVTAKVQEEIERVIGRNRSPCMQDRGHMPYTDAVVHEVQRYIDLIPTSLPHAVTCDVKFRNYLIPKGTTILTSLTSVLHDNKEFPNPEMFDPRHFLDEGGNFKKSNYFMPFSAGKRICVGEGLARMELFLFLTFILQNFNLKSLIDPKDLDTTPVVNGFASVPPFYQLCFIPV
CYP2C8, sequence (P10632 whole entry): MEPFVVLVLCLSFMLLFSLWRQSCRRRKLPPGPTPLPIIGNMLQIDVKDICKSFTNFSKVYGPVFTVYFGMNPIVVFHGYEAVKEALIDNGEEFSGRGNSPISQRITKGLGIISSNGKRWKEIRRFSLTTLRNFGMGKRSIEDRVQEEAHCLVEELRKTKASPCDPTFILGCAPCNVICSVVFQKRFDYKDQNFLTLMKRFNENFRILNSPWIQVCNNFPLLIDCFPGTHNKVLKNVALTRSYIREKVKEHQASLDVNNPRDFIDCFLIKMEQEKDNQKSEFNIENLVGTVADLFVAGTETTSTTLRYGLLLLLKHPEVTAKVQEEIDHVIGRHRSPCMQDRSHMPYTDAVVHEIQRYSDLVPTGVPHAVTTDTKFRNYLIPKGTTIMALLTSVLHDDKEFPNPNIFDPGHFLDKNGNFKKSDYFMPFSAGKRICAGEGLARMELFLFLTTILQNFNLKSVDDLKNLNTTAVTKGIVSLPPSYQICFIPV
CYP2C9, sequence (P11712 whole entry): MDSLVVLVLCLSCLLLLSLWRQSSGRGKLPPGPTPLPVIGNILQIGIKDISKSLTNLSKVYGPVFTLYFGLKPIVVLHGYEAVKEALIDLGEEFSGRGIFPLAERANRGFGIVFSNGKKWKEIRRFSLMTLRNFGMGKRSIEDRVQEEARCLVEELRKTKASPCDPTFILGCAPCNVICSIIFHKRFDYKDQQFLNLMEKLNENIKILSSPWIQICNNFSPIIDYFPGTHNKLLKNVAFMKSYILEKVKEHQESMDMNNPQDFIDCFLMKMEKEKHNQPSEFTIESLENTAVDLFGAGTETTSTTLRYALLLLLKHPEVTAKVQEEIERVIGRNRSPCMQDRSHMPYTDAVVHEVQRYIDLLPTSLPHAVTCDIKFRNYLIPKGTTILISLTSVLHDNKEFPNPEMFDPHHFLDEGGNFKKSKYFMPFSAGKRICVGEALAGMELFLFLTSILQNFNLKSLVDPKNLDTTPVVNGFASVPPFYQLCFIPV
CYP2B6, sequence (P20813 whole entry): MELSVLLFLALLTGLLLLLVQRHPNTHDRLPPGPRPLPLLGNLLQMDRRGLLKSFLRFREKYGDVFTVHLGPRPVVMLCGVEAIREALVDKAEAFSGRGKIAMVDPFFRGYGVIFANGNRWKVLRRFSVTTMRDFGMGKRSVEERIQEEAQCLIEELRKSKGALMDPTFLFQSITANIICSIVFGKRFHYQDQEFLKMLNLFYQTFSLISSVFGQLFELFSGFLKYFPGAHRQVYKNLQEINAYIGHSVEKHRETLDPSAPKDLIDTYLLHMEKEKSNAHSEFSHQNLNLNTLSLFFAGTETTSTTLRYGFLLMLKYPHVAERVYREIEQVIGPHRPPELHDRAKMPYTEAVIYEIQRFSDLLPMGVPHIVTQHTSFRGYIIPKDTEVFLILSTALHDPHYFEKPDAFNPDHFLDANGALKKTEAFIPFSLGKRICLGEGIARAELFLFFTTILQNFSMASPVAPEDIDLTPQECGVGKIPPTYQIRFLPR

For CN1CCN(C2CCC(n3nc(-c4ccc(Oc5ccccc5)cc4)c4c(N)ncnc43)CC2)CC1 (stereo not shown) [Compound (I), 1-((1r,4r)-4-(4-methylpiperazin-1-yl)cyclohexyl)-3-(4-phenoxyphenyl)-1H-pyrazolo[3,4-d]pyrimidin-4-amine], the half-life [1] was 1 h, the survivability [2] was “increased survivability” and the “attenuation of pBTK, pAKT, pERK1/2, and pSYK” value [3, 28] was “abrogated”. The pBTK [3, 28] was “continued to show reduced activity”, the “expression of pBTK, pAKT, pERK1/2, and p-SYK” value ([3]; HCK^WT expressing BCWM.1 cells) was “blocked the expression of pBTK, pAKT, pERK1/2, and p-SYK in a dose dependent manner” and the “increase in resistance by expression of HCK^T333M” value [4] was “more than 20 fold”. For the same compound, the “p-HCK and p-BTK levels” value [5] was “reduction of p-HCK(T209) and p-BTK^Y223”, the half-life ([6]; rats, read-out: half-life t1/2 with purified microsomes) was over 2 h and the half-life [6, 29] was at least 1 h. The anti-tumor activity [7] was “targeted anti-tumor activity”, the inhibition (CYP2C8) was -3.8% and the inhibition (CYP1A) was -27.9%. The inhibition (CYP2C9) was -10.9%, the inhibition (CYP2D6) was 24.9% and the inhibition (CYP2B6) was 64.5%. The inhibition (CYP2C19) was 0.8%, the apoptotic effect [8] was “no apoptotic effect” and the “S(1) score” value (panel of 464 kinases) was 0.07. The “S(10) score” value (panel of 464 kinases) was 0.13, the S10 (panel of 464 kinases; panel of 464 kinases) was 0.07 and the S35 (panel of 464 kinases; panel of 464 kinases) was 0.13. The targeted kinases (panel of 464 kinases; panel of 464 kinases) was “mainly limited to the Src-family kinases HCK, BLK, LYN, and FRK, and the Tec-family kinase BTK”, the “BTK inhibition / binding” value (BTK [9]) was “effectively binds” and the “effect of HCK^T333M on compound induced cell death” value [10] was “rescues Compound (I) induced cell death”. For the same compound, the “binding to LYN” value (LYN [11]) was “very strongly binds”, the “HCK activation in the presence of compound” value [12] was “persistent activation of HCK” and the half-life ([13]; humans, read-out: half-life t1/2 with purified microsomes) was 0.825 h. The half-life [13, 29] was at least 1 h, the “effect of HCK^T333M on compound induced cell death” value [14] was “rescues Compound (I) induced cell death” and the fraction unbound (Plasma protein binding; dog, dogs) was 0.05. It also gave a fraction unbound (Plasma protein binding; human, humans) of 0.043, a fraction unbound (Plasma protein binding; mouse, mice) of 0.023 and a fraction unbound (Plasma protein binding; rat, rats) of 0.045. The half-life ([15]; mice, read-out: half-life t1/2 with purified microsomes) was 1.77 h, the half-life [15, 29] was at least 1 h and the clearance ([16]; intravenous, 2 mg/kg, read-out: in vivo clearance rate) was 17.4 mL/min/kg. The bioavailability ([16]; po, 10 mg/kg, 10 mg/kg oral) was 49%, the bioavailability ([16]; po, 25 mg/kg, 25 mg/kg oral) was 55% and the AUC ([16]; po, orally at 10 mg/kg) was 5.2 µM·h. It also gave a half-life ([16]; po, orally at 10 mg/kg and 25 mg/kg, read-out: T1/2) of 15.1 to 16.9 h, an AUC ([16]; po, orally at 25 mg/kg) of 11.4 µM·h and a half-life ([16]; 10 mg/kg oral, read-out: serum half-life (converted)) of 15.1 h. The half-life ([16]; 25 mg/kg oral, read-out: serum half-life (converted)) was 16.9 h, the half-life ([16]; intravenous administration (2 mg/kg), read-out: serum half-life (converted)) was 11.5 h and the “hERG cardiotoxicity (patch clamp)” value (hERG) was “negative”. The tolerability [17] was “well-tolerated”, the “BTK and ERK 1/2 phosphorylation” value [18] was “effectively blocked” and the “engagement of / binding to HCK” value (HCK [19]) was “robust engagement; also recorded: very strongly binds”. The “IC50s (in words)” value (LYN [20]) was “single-digit nanomolar”, the “activity against SRC-family kinases (HCK, BLK, LYN, FRK), Tec-family kinases (BTK), ACK (TNK2), CSK, ErbB2, and ABL” value [21] was “nanomolar activity” and the “target engagement (block of kinase binding to desthiobiotin-ATP probe)” value ([21]; TMD8 ABC DLBCL cells treated at 1. μM) was “strongly targeted both HCK and BTK”. For the same compound, the Ames genotoxicity [22] was “negative”, the “inhibition of HCK phosphorylation” value [23] was “robust inhibition” and the apoptotic effect [24] was “robust apoptosis”. For the same compound, the “IC50s (in words)” value (BTK [25]) was “single-digit nanomolar” and the “IC50s (in words)” value (HCK [26]) was “single-digit nanomolar”.

Work on CN1CCN([C@H]2CC[C@H](n3nc(-c4ccc(Oc5ccccc5)cc4)c4c(N)ncnc43)CC2)CC1 [Compound (I), 1-((1r,4r)-4-(4-methylpiperazin-1-yl)cyclohexyl)-3-(4-phenoxyphenyl)-1H-pyrazolo[3,4-d]pyrimidin-4-amine] yielded an IC50 (BTK [25]) of 0.915 nM and an IC50 (HCK [26]) of under 0.495 nM.

For CN1CCN(C2CCC(n3cc(-c4ccc(Oc5ccccc5)cc4)c4c(N)ncnc43)CC2)CC1 (stereo not shown) [Compound A419259, reference compound], the Tui2 [27] was 176.0 h, the “S(1) score” value (panel of 464 kinases) was 0.07 and the “S(10) score” value (panel of 464 kinases) was 0.13.
